Experimental data reported in US20120035855A1, “METHOD OF NETWORK-BASED IDENTIFICATION FOR DRUG ACTION AND/OR SYNERGY EFFECT OF MEDICINE COMBINATION” (TSINGHUA UNIVERSITY, priority 2008, published 2012).

test system: Human Umbilical Vein Endothelial Cells (HUVECs); assay: Cell scratch experiment, inhibition of endothelial cell migration; type: cell-based; parameters: Ranking by experiment results: dose or concentration left out as unconfirmed; conditions: single medicine; 9 h intervention; FIG. 4
Description: Experiment: cell scratch experiments were used to quantitively measure the inhibition of medicines on migration. […] Sterile operation had to be ensured during cell scrapping process. Human Umbilical Vein Endothelial Cells (HUVECs) available from Cascade Biologics (Portland, USA) were repeatably cultured with the supplier's criterions; Matrine, quercetin, emodin, evodiamine, genistein, and aconitine were purchased from National Institute for the Control of Pharmaceutical and Biological Products, and their experimental density were set at 10 mM as indicated by literature. HUVECs were cultured on 12-plate coated by 0.1% gelatin, the cells were inactivated after 2 hours under the conditions of 5% CO2, 37° C. and 10 ug/ml of Mitonycin C. Cell scraper about 1 mm in width was used to scrap on the fused surface of single-layer of cells. Standard endothelial cell growth medium (ECGM) free of medicine application was taken as control group. Pictures were taken at 6 h−10 h of medicine intervention by Nikon digital camera, with migration distance being scaled by configure software. The experiment was repeated five times. The […] ability of the medicines was measured by Migration Inhibition Rate, determined as:
Migration Inhibition Rate=(migration distance of control group−migration distance of experimental group)/migration distance of control group

Question: `O=C1CCC[C@@H]2[C@H]3CCCN4CCC[C@@H](CN12)[C@@H]34` [Matrine] was tested. Which “inhibition on endothelial cell migration (in words)” value did it give?
Answer: The value was “strongest inhibition”.

same assay, conditions: single medicine; rank of migration inhibition among six medicines; 9 h

Question: How did the “Ranking by experiment results” value turn out when `CCN1C[C@]2(COC)[C@H](O)C[C@H](OC)[C@@]34[C@@H]5C[C@@]6(O)[C@H](OC(=O)c7ccccc7)[C@@H]5[C@@](OC(C)=O)([C@@H]([C@H](OC)[C@H]23)[C@@H]14)[C@@H](O)[C@@H]6OC` [Aconitine] was run?
Answer: The value was 6.

Question: Which “Ranking by experiment results” value does the source give for `Cc1cc(O)c2c(c1)C(=O)c1cc(O)cc(O)c1C2=O` [Emodin] here?
Answer: Its value is 3.

Question: With `O=c1c(O)c(-c2ccc(O)c(O)c2)oc2cc(O)cc(O)c12` [Quercetin] as the molecule, how does the “Ranking by experiment results” value read?
Answer: Its value is 2.

Question: `O=C1CCC[C@@H]2[C@H]3CCCN4CCC[C@@H](CN12)[C@@H]34` [Matrine] was tested. Which “Ranking by experiment results” value did it give?
Answer: Its value is 1.

Question: With Evodiamine as the molecule, how does the “Ranking by experiment results” value read?
Answer: Its value is 4.

Question: For `O=c1c(-c2ccc(O)cc2)coc2cc(O)cc(O)c12` [Genistein], which “Ranking by experiment results” value is on record?
Answer: Its value is 5.
